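These data come from cells grown in 96-well plates and exposed to compound for 48 hours at five concentrations. Abbreviation: GI50, concentration required for 50% inhibition of growth.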 Active and inactive are the calls of the source. No stated cut-off is given here; in the data, active = GI50 up to about 1.1 µM and inactive = higher.
Columns and labels:
Assay in all cases: NCI anticancer screen, dose series, 48 h
NCI/ADR-RES = system: NCI/ADR-RES
SW-620 = system: SW-620
OVCAR-8 = system: OVCAR-8
CCRF-CEM = system: CCRF-CEM
SK-OV-3 = system: SK-OV-3
RPMI-8226 = system: RPMI-8226
OVCAR-4 = system: OVCAR-4
M14 = system: M14
EKVX = system: EKVX
BT-549 = system: BT-549
SNB-19 = system: SNB-19
HOP-92 = system: HOP-92
786-0 = system: 786-0
COLO 205 = system: COLO 205
MDA-N = system: MDA-N
MOLT-4 = system: MOLT-4
NCI-H226 = system: NCI-H226
SN12C = system: SN12C
UACC-257 = system: UACC-257
TK-10 = system: TK-10
MDA-MB-435 = system: MDA-MB-435
SR = system: SR
KM12 = system: KM12
LOX IMVI = system: LOX IMVI
K562 = system: K562
NCI-H23 = system: NCI-H23
CAKI-1 = system: CAKI-1
DU-145 = system: DU-145
OVCAR-5 = system: OVCAR-5
SF-295 = system: SF-295
SNB-75 = system: SNB-75
SF-539 = system: SF-539
UO-31 = system: UO-31
HCT-15 = system: HCT-15
HL-60 = system: HL-60
SK-MEL-2 = system: SK-MEL-2
MDA-MB-231 = system: MDA-MB-231
HOP-62 = system: HOP-62
IGROV-1 = system: IGROV-1
A549 = system: A549
SK-MEL-28 = system: SK-MEL-28
U-251 = system: U-251
HCT-116 = system: HCT-116
SK-MEL-5 = system: SK-MEL-5
OVCAR-3 = system: OVCAR-3
HT-29 = system: HT-29
A498 = system: A498
T47D = system: T47D
RXF 393 = system: RXF 393
ACHN = system: ACHN
PC-3 = system: PC-3
MCF7 = system: MCF7
SF-268 = system: SF-268
HCC 2998 = system: HCC 2998
NCI-H522 = system: NCI-H522
Malme-3M = system: Malme-3M
NCI-H460 = system: NCI-H460
UACC-62 = system: UACC-62

O=C(N/N=C/c1ccc(Cl)cc1)c1cc(I)cc(I)c1O
GI50 (NCI/ADR-RES): > 100 µM (inactive) | GI50 (SW-620): > 100 µM (inactive) | GI50 (OVCAR-8): > 100 µM (inactive) | GI50 (CCRF-CEM): > 100 µM (inactive) | GI50 (SK-OV-3): > 100 µM (inactive) | GI50 (RPMI-8226): > 100 µM (inactive) | GI50 (OVCAR-4): > 100 µM (inactive) | GI50 (M14): > 100 µM (inactive) | GI50 (EKVX): > 100 µM (inactive) | GI50 (BT-549): > 100 µM (inactive) | GI50 (SNB-19): > 100 µM (inactive) | GI50 (HOP-92): 92.3 µM (inactive) | GI50 (786-0): > 100 µM (inactive) | GI50 (COLO 205): > 100 µM (inactive) | GI50 (MDA-N): > 100 µM (inactive) | GI50 (MOLT-4): > 100 µM (inactive) | GI50 (NCI-H226): > 100 µM (inactive) | GI50 (SN12C): > 100 µM (inactive) | GI50 (UACC-257): > 100 µM (inactive) | GI50 (TK-10): > 100 µM (inactive) | GI50 (MDA-MB-435): > 100 µM (inactive) | GI50 (SR): 76.6 µM (inactive) | GI50 (KM12): > 100 µM (inactive) | GI50 (LOX IMVI): > 100 µM (inactive) | GI50 (K562): > 100 µM (inactive) | GI50 (NCI-H23): > 100 µM (inactive) | GI50 (CAKI-1): > 100 µM (inactive) | GI50 (DU-145): > 100 µM (inactive) | GI50 (OVCAR-5): > 100 µM (inactive) | GI50 (SF-295): > 100 µM (inactive) | GI50 (SNB-75): 94.2 µM (inactive) | GI50 (SF-539): > 100 µM (inactive) | GI50 (UO-31): > 100 µM (inactive) | GI50 (HCT-15): > 100 µM | GI50 (HL-60): > 100 µM (inactive) | GI50 (SK-MEL-2): > 100 µM (inactive) | GI50 (MDA-MB-231): > 100 µM (inactive) | GI50 (HOP-62): > 100 µM (inactive) | GI50 (IGROV-1): > 100 µM (inactive) | GI50 (A549): > 100 µM (inactive) | GI50 (SK-MEL-28): > 100 µM (inactive) | GI50 (U-251): > 100 µM (inactive) | GI50 (HCT-116): > 100 µM (inactive) | GI50 (SK-MEL-5): > 100 µM (inactive) | GI50 (OVCAR-3): > 100 µM (inactive) | GI50 (HT-29): > 100 µM (inactive) | GI50 (A498): 33.3 µM (inactive) | GI50 (T47D): > 100 µM (inactive) | GI50 (RXF 393): > 100 µM (inactive) | GI50 (ACHN): > 100 µM (inactive) | GI50 (PC-3): > 100 µM (inactive) | GI50 (MCF7): > 100 µM (inactive)

CCC1CC2CN3CCc4c([nH]c5c(-c6c(OC)ccc7c8c([nH]c67)[C@]6(C(=O)OC)CC7CC(CC)C6N(CC8)C7)c(O)ccc45)[C@](C(=O)OC)(C2)C13 (some centres not stated)
GI50 (NCI/ADR-RES): 20.4 µM (inactive) | GI50 (SW-620): 12.4 µM (inactive) | GI50 (OVCAR-8): 20.5 µM (inactive) | GI50 (SF-268): 12.1 µM (inactive) | GI50 (CCRF-CEM): 15.3 µM (inactive) | GI50 (SK-OV-3): 25.6 µM (inactive) | GI50 (M14): 24.9 µM (inactive) | GI50 (EKVX): 17.1 µM (inactive) | GI50 (BT-549): 17.3 µM (inactive) | GI50 (SNB-19): 14.3 µM (inactive) | GI50 (HOP-92): 12.9 µM (inactive) | GI50 (786-0): 12.6 µM (inactive) | GI50 (COLO 205): 11.4 µM (inactive) | GI50 (MDA-N): 12.2 µM (inactive) | GI50 (MOLT-4): 2.64 µM (inactive) | GI50 (HCC 2998): 13.3 µM (inactive) | GI50 (NCI-H226): 4.92 µM (inactive) | GI50 (SN12C): 4.34 µM (inactive) | GI50 (UACC-257): 18.6 µM (inactive) | GI50 (TK-10): 15.2 µM (inactive) | GI50 (MDA-MB-435): 11.1 µM (inactive) | GI50 (SR): 13.3 µM (inactive) | GI50 (KM12): 12.4 µM (inactive) | GI50 (NCI-H522): 15.7 µM (inactive) | GI50 (LOX IMVI): 14.8 µM (inactive) | GI50 (K562): 6.19 µM (inactive) | GI50 (NCI-H23): 16 µM (inactive) | GI50 (CAKI-1): 12.6 µM (inactive) | GI50 (DU-145): 14.9 µM (inactive) | GI50 (Malme-3M): > 10 µM (inactive) | GI50 (OVCAR-5): 16.6 µM (inactive) | GI50 (SF-295): 17.4 µM (inactive) | GI50 (SNB-75): 14.8 µM (inactive) | GI50 (SF-539): 19.5 µM (inactive) | GI50 (UO-31): 12.7 µM (inactive) | GI50 (HCT-15): 15.2 µM | GI50 (SK-MEL-2): 20.9 µM (inactive) | GI50 (MDA-MB-231): 21.6 µM (inactive) | GI50 (NCI-H460): 14.7 µM (inactive) | GI50 (HOP-62): 15.2 µM (inactive) | GI50 (IGROV-1): 14 µM (inactive) | GI50 (A549): 17.6 µM (inactive) | GI50 (SK-MEL-28): 15.8 µM (inactive) | GI50 (U-251): 12.9 µM (inactive) | GI50 (HCT-116): 13 µM (inactive) | GI50 (SK-MEL-5): 13.6 µM (inactive) | GI50 (OVCAR-3): 14.6 µM (inactive) | GI50 (HT-29): 5.37 µM (inactive) | GI50 (A498): 15.1 µM (inactive) | GI50 (T47D): 11.1 µM (inactive) | GI50 (RXF 393): 12.2 µM (inactive) | GI50 (ACHN): 19.6 µM (inactive) | GI50 (PC-3): 13.6 µM (inactive) | GI50 (UACC-62): 14.3 µM (inactive) | GI50 (MCF7): 6.82 µM (inactive)
